According to ChEMBL document CHEMBL1154581, “Polyhydroxylated sterols from the octocoral Dendronephthya gigantea” (J Nat Prod, 2000):
≈ marks a conversion by molar mass, not a printed value.

Tested on: L1210
Test: Cytotoxicity against mouse L1210 cells
Type: functional, cell-based

In the case of `CC(=O)OC[C@]12CC[C@H]3[C@@H](C[C@@H](O)[C@@]4(O)C[C@@H](O)CC[C@]34C)[C@@H]1[C@H](O)C[C@@H]2[C@H](C)CCCC(C)C` [DENDRONESTEROL B], the IC50 is reported as 5.2 mg/L (≈ 10.5 µM).
